Experimental data published in patent publication EP2970215B1, “PYRROLIDINE DERIVATIVES, PHARMACEUTICAL COMPOSITIONS CONTAINING THEM, AND THEIR USE IN THERAPY” (AbbVie Deutschland GmbH & Co. KG, priority 2013, dated 2014).

These compounds were tested against T1, human GlyT1c transporter (Homo sapiens, UniProt P48067) (assay: Radioligand binding assay using recombinant CHO cell membranes expressing human GlyT1). Settings: radioligand binding to human GlyT1c transporter-expressing membranes.
T1 construct: expressed in transfected cells; host or cells: CHO cells (recombinant; line hGlyT1c_5_CHO is named for the uptake assay)
T1 sequence (P48067 1-706): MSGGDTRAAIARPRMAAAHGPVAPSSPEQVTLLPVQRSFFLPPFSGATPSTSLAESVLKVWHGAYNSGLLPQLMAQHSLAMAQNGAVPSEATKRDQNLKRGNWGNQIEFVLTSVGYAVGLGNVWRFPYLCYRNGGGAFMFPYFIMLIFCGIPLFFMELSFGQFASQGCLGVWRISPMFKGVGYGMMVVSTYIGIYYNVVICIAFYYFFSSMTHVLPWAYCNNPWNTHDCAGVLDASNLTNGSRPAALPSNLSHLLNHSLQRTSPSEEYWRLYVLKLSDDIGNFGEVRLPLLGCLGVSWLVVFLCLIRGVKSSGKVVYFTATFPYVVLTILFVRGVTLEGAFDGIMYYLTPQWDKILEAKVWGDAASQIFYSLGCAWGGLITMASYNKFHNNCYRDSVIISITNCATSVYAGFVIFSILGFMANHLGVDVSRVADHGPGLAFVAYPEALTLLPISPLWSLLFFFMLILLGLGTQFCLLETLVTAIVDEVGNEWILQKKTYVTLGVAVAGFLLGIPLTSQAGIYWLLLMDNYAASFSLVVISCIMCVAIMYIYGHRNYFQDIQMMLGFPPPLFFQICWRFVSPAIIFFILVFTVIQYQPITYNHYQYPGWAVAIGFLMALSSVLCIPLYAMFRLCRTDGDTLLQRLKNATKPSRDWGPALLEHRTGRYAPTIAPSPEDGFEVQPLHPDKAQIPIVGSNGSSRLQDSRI
Text: 2. Radioligand binding assays using recombinant CHO cell membranes expressing human GlyT1: […]

Row | Structure (SMILES) | Ki [nM]
1 | CCCS(=O)(=O)N1C[C@@H](NC(=O)c2cccc(C(F)(F)F)c2Cl)[C@H](c2ccccc2)C1 (relative stereo) [Example 127, 2-chloro-N-[trans-4-phenyl-1-(propylsulfonyl)pyrrolidin-3-yl]-3-(trifluoromethyl)benzamide] | ≤ 10000
2 | CC(C)(C)OC(=O)N[C@@H]1CN(S(=O)(=O)c2ccccc2C#N)C[C@H]1c1ccccc1 (relative stereo) [Example 523, tert-butyl {trans-1-[(2-cyanophenyl)sulfonyl]-4-phenylpyrrolidin-3-yl}carbamate] | ≤ 10000
3 | Cc1ccc(N[C@H]2CN(S(=O)(=O)c3cn(C)cn3)C[C@@H]2c2ccc(F)cc2)cc1C(F)(F)F [Example 638, (3R,4S)-4-(4-fluorophenyl)-1-[(1-methyl-1H-imidazol-4-yl)sulfonyl]-N-[4-methyl-3-(trifluoromethyl)phenyl]pyrrolidin-3-amine] | ≤ 1000
4 | Cn1cnc(S(=O)(=O)N2C[C@@H](NC(=O)c3ccc(C(F)(F)F)c(Cl)c3)[C@H](c3ccc(F)cc3)C2)c1 (relative stereo) [Example 63, 3-chloro-N-{trans-4-(4-fluorophenyl)-1-[(1-methyl-1H-imidazol-4-yl)sulfonyl]pyrrolidin-3-yl}-4-(trifluoromethyl)benzamide] | ≤ 100
5 | Cn1cnc(S(=O)(=O)N2C[C@@H](C(=O)c3ccc(Cl)c(Cl)c3)[C@H](c3ccc(F)cc3)C2)c1 (relative stereo) [Example 359, (3,4-Dichlorophenyl){trans-4-(4-fluorophenyl)-1-[(1-methyl-1H-imidazol-4-yl)sulfonyl]pyrrolidin-3-yl} methanone] | ≤ 1000
6 | CCCS(=O)(=O)N1C[C@@H](NC(=O)c2ccc(C(F)(F)F)cc2)[C@H](c2ccccc2)C1 (relative stereo) [Example 125, N-[trans-4-phenyl-1-(propylsulfonyl)pyrrolidin-3-yl]-4-(trifluoromethyl)benzamide] | > 10000
7 | COc1nccc(N[C@H]2CN(S(=O)(=O)c3cn(C)cn3)C[C@@H]2c2ccccc2)n1 [Example 532, 2-methoxy-N-{(3R,4S)-1-[(1-methyl-1H-imidazol-4-yl)sulfonyl]-4-phenylpyrrolidin-3-yl}pyrimidin-4-amine] | ≤ 10000
8 | Cn1cnc(S(=O)(=O)N2C[C@H](Nc3cc(-c4ccccc4F)ncn3)[C@@H](c3ccc(F)cc3)C2)c1 [Example 726, 6-(2-fluorophenyl)-N-{(3R,4S)-4-(4-fluorophenyl)-1-[(1-methyl-1H-imidazol-4-yl)sulfonyl]pyrrolidin-3-yl}pyrimidin-4-amine] | ≤ 100
9 | Cc1ccc2sc(CN[C@H]3CN(S(=O)(=O)c4cn(C)cn4)C[C@@H]3c3ccccc3)cc2c1 [Example 437, (3R,4S)-N-[(5-methyl-1-benzothiophen-2-yl)methyl]-1-[(1-methyl-1H-imidazol-4-yl)sulfonyl]-4-phenylpyrrolidin-3-amine] | ≤ 100
10 | Cn1cnc(S(=O)(=O)N2C[C@@H](OCc3cccc(F)c3)[C@H](c3ccc(F)cc3)C2)c1 (relative stereo) [Example 712, 4-{[trans-3-[(3-fluorobenzyl)oxy]-4-(4-fluorophenyl)pyrrolidin-1-yl]sulfonyl}-1-methyl-1H-imidazole] | ≤ 1000
11 | Cn1cnc(S(=O)(=O)N2C[C@@H](NCc3ccc(C(F)(F)F)cc3Cl)[C@H](c3ccc(F)cc3)C2)c1 (relative stereo) [Example 150, trans-N-[2-chloro-4-(trifluoromethyl)benzyl]-4-(4-fluorophenyl)-1-[(1-methyl-1H-imidazol-4-yl)sulfonyl]pyrrolidin-3-amine] | ≤ 1
12 | Cn1cnc(S(=O)(=O)N2C[C@H](Nc3ccc(F)c(-c4cncnc4)c3)[C@@H](c3ccc(F)cc3)C2)c1 [Example 749, (3R,4S)-4-(4-fluorophenyl)-N-[4-fluoro-3-(pyrimidin-5-yl)phenyl]-1-[(1-methyl-1H-imidazol-4-yl)sulfonyl]pyrrolidin-3-amine] | ≤ 10
13 | Cn1cnc(S(=O)(=O)N2C[C@H](Nc3ccc(Cl)c(C(F)(F)F)c3)[C@@H](C3CCCO3)C2)c1 (stereo partly drawn) [Example 619, (3R,4S)-N-[4-chloro-3-(trifluoromethyl)phenyl]-1-[(1-methyl-1H-imidazol-4-yl)sulfonyl]-4-(tetrahydrofuran-2-yl)pyrrolidin-3-amine] | ≤ 1000
14 | Cn1cnc(S(=O)(=O)N2C[C@H](Nc3ccc(Cl)c(C(F)(F)F)c3)[C@@H](c3cocn3)C2)c1 [Example 753] | ≤ 1000
15 | Cn1cnc(S(=O)(=O)N2C[C@@H](Nc3cc(F)ccc3F)[C@H](c3ccccc3)C2)c1 (relative stereo) [Example 232, trans-N-(2,5-difluorophenyl)-1-[(1-methyl-1H-imidazol-4-yl)sulfonyl]-4-phenylpyrrolidin-3-amine] | ≤ 10000
16 | Cn1cnc(S(=O)(=O)N2C[C@@H](CNCC3CC3)[C@H](c3ccc(F)cc3)C2)c1 [Example 607, 1-cyclopropyl-N-({(3R,4R)-4-(4-fluorophenyl)-1-[(1-methyl-1H-imidazol-4-yl)sulfonyl]pyrrolidin-3-yl}methyl)methanamine] | ≤ 10000
17 | Cn1cnc(S(=O)(=O)N2C[C@H](NCCOc3ccc(C(C)(C)C)cc3)[C@@H](c3ccccc3)C2)c1 [Example 469, (3R,4S)-N-[2-(4-tert-butylphenoxy)ethyl]-1-[(1-methyl-1H-imidazol-4-yl)sulfonyl]-4-phenylpyrrolidin-3-amine] | ≤ 1000
18 | Cn1cnc(S(=O)(=O)N2C[C@@H](NCc3ccc(Cl)cc3)[C@H](c3ccc(F)cc3)C2)c1 (relative stereo) [Example 262, trans-N-(4-chlorobenzyl)-4-(4-fluorophenyl)-1-[(1-methyl-1H-imidazol-4-yl)sulfonyl]pyrrolidin-3-amine] | ≤ 10
19 | Cn1cnc(S(=O)(=O)N2C[C@H](Nc3cccc(-c4ccccn4)c3)[C@@H](c3ccc(F)cc3)C2)c1 [Example 801, (3R,4S)-4-(4-fluorophenyl)-1-[(1-methyl-1H-imidazol-4-yl)sulfonyl]-N-[3-(pyridin-2-yl)phenyl]pyrrolidin-3-amine] | ≤ 10
20 | Cn1cnc(S(=O)(=O)N2C[C@@H](NC(=O)c3ccc(C(F)(F)F)cc3Cl)[C@H](c3ccc(F)cc3)C2)c1 (relative stereo) [Example 62, 2-chloro-N-{trans-4-(4-fluorophenyl)-1-[(1-methyl-1H-imidazol-4-yl)sulfonyl]pyrrolidin-3-yl}-4-(trifluoromethyl)benzamide] | ≤ 100
21 | Cn1cnc(S(=O)(=O)N2C[C@@H](OCc3cccc(S(C)(=O)=O)c3)[C@H](c3ccc(F)cc3)C2)c1 (relative stereo) [Example 714, 4-{[trans-3-(4-fluorophenyl)-4-{[3-(methylsulfonyl)benzyl]oxy}pyrrolidin-1-yl]sulfonyl}-1-methyl-1H-imidazole] | ≤ 10000
22 | Cn1cnc(S(=O)(=O)N2C[C@@H](NC(=O)c3ccc(F)cc3Cl)[C@H](c3ccccc3)C2)c1 (relative stereo) [Example 27, 2-chloro-4-fluoro-N-{trans-1-[(1-methyl-1H-imidazol-4-yl)sulfonyl]-4-phenylpyrrolidin-3-yl}benzamide] | ≤ 1000
23 | Cn1cnc(S(=O)(=O)N2C[C@@H](Nc3cccc(Cl)c3)[C@H](C3CCCOC3)C2)c1 (relative stereo) [Example 783, trans -N-(3-chlorophenyl)-1-[(1-methyl-1H-imidazol-4-yl)sulfonyl] -4-(tetrahydro-2H-pyran-3 - yl)pyrrolidin-3-amine] | ≤ 1000
24 | Cn1cnc(S(=O)(=O)N2C[C@H](NCC3(C(F)(F)F)CC3)[C@@H](c3ccc(F)cc3)C2)c1 [Example 386, (3R,4S)-4-(4-fluorophenyl)-1-[(1-methyl-1H-imidazol-4-yl)sulfonyl]-N-{[-(trifluoromethyl)cyclopropyl]methyl}pyrrolidin-3-amine] | ≤ 1000
25 | Cc1ccccc1C(=O)N[C@@H]1CN(S(=O)(=O)c2cn(C)cn2)C[C@H]1c1ccccc1 (relative stereo) [Example 22, 2-methyl-N-{trans-1-[(1-methyl-1H-imidazol-4-yl)sulfonyl]-4-phenylpyrrolidin-3-yl}benzamide] | ≤ 10000
26 | Cn1cnc(S(=O)(=O)N2C[C@H](NCc3cc(Cl)sc3Cl)[C@@H](c3ccccc3)C2)c1 [Example 570, (3R,4S)-N-[(2,5-dichlorothiophen-3-yl)methyl]-1-[(1-methyl-1H-imidazol-4-yl)sulfonyl]-4-phenylpyrrolidin-3-amine] | ≤ 10
27 | Cn1cnc(S(=O)(=O)N2C[C@H](NCc3cc4cccnc4s3)[C@@H](c3ccccc3)C2)c1 [Example 442, (3R,4S)-1-[(1-methyl-1H-imidazol-4-yl)sulfonyl]-4-phenyl-N-(thieno[2,3-b]pyridin-2-ylmethyl)pyrrolidin-3-amine] | ≤ 1000
28 | Cn1cnc(S(=O)(=O)N2C[C@@H](Nc3ccc(C(F)(F)F)cc3)[C@H](c3ccccc3Cl)C2)c1 (relative stereo) [Example 256, trans-4-(2-chlorophenyl)-1-[(1-methyl-1H-imidazol-4-yl)sulfonyl]-N-[4-(trifluoromethyl)phenyl]pyrrolidin-3-amine] | ≤ 1000
